Experimental data from patent US9775844B2, “Heterocyclic compounds and uses thereof” (Infinity Pharmaceuticals, Inc., priority 2014, dated 2017).

Tests used:
PI3K α = PI3K α (Homo sapiens (Human), UniProt P42336); assay: PI3-Kinase Promega ADP-Glo Max assay; assay type: biochemical
PI3K β = PI3K β (Homo sapiens (Human), UniProt P42338); assay: PI3-Kinase Promega ADP-Glo Max assay; assay type: biochemical
PI3K δ = PI3K δ (Homo sapiens (Human), UniProt O00329); assay: PI3-Kinase Promega ADP-Glo Max assay; assay type: biochemical
PI3K γ = PI3K γ (Homo sapiens (Human), UniProt P48736); assay: PI3-Kinase Promega ADP-Glo Max assay; assay type: biochemical
PI3K-δ in RAJI cells = PI3K-δ in RAJI cells (Homo sapiens (Human), UniProt O00329); assay: RAJI p110 δ assay (PI3K-δ selective cellular assay, phospho-AKT); assay type: cell-based; conditions: phospho-AKT; read-out: RAJI p110 δ assay IC50
[1] = target: PI3K-γ in RAW264.7 macrophages (Mus musculus (Mouse), UniProt Q9JHG7); assay: Raw264.7 p110 γ assay (PI3K-γ selective cellular assay, C5a-stimulated phospho-AKT); assay type: cell-based; conditions: for IC50: phospho-AKT, read-out: Raw264.7 p110 γ assay IC50

Sequence of PI3K α (P42336 whole entry): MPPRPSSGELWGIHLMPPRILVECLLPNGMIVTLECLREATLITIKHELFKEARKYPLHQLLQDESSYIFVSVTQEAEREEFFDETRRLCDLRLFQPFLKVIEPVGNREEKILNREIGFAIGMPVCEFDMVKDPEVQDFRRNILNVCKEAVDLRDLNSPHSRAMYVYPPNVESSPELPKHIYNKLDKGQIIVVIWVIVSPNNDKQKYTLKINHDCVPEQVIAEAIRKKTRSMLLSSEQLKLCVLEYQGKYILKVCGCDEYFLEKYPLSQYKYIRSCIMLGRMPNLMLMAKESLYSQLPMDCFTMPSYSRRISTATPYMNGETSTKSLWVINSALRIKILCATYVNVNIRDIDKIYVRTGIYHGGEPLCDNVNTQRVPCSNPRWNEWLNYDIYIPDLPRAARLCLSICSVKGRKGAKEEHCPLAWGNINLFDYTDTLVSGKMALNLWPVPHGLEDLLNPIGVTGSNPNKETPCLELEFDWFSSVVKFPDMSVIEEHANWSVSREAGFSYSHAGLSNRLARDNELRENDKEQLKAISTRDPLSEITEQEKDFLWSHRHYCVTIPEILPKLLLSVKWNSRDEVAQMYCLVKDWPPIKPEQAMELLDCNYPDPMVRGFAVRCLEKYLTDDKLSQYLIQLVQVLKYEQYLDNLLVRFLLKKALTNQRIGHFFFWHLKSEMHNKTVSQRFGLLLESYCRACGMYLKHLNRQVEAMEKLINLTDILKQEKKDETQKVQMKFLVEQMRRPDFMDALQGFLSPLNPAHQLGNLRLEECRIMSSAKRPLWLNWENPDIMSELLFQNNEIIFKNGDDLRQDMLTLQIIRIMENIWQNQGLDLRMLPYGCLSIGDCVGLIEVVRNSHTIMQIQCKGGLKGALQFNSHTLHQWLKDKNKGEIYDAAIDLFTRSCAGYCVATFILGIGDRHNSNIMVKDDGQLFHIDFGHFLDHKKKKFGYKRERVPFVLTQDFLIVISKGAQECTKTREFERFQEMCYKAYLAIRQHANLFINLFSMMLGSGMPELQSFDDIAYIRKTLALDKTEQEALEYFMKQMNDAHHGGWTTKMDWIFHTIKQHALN
Sequence of PI3K α (P27986 whole entry partner): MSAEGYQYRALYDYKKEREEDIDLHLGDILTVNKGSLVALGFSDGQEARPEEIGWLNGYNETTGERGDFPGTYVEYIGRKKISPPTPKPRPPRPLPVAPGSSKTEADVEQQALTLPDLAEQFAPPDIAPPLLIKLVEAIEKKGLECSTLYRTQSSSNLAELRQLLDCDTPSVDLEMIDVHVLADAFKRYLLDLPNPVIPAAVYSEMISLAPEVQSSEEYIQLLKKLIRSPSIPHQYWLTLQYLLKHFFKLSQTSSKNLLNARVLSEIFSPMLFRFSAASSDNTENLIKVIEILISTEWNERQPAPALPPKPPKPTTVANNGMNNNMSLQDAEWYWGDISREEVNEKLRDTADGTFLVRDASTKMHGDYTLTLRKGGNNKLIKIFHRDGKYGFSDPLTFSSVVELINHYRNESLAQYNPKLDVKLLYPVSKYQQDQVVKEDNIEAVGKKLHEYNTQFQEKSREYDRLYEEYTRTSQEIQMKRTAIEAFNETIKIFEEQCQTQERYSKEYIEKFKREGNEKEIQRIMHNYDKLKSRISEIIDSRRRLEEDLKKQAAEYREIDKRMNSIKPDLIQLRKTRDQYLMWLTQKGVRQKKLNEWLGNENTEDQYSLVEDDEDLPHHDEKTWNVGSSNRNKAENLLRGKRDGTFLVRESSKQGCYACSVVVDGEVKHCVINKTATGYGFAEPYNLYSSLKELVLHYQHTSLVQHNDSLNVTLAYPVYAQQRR
Sequence of PI3K γ (P48736 whole entry): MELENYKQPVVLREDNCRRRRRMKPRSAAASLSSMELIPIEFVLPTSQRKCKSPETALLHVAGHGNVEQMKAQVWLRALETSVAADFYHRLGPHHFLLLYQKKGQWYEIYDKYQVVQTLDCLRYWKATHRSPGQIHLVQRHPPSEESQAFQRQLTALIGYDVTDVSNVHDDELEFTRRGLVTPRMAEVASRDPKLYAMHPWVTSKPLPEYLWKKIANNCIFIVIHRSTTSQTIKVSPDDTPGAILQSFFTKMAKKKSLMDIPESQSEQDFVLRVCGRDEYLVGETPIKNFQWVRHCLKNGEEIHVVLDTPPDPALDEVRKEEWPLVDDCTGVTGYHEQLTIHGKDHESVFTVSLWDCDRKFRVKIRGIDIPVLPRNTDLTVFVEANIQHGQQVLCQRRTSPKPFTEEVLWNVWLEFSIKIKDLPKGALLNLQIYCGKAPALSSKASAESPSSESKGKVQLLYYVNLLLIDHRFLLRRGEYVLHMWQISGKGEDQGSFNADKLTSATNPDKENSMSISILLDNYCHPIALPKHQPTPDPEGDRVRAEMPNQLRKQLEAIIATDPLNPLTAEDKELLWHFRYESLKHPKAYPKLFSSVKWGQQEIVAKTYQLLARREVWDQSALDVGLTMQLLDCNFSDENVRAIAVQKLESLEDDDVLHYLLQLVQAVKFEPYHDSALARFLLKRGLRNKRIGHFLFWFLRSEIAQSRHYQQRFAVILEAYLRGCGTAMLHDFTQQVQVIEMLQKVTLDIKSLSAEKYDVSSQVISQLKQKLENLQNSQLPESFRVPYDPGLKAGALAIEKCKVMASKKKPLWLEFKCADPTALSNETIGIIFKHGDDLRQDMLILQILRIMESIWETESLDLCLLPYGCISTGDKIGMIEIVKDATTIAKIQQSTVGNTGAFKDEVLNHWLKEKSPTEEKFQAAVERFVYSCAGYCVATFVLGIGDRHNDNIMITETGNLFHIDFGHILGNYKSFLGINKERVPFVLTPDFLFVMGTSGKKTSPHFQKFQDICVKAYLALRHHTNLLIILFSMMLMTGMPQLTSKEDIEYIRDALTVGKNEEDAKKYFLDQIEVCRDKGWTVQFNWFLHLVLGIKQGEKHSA
Sequence of PI3K β (P42338 whole entry): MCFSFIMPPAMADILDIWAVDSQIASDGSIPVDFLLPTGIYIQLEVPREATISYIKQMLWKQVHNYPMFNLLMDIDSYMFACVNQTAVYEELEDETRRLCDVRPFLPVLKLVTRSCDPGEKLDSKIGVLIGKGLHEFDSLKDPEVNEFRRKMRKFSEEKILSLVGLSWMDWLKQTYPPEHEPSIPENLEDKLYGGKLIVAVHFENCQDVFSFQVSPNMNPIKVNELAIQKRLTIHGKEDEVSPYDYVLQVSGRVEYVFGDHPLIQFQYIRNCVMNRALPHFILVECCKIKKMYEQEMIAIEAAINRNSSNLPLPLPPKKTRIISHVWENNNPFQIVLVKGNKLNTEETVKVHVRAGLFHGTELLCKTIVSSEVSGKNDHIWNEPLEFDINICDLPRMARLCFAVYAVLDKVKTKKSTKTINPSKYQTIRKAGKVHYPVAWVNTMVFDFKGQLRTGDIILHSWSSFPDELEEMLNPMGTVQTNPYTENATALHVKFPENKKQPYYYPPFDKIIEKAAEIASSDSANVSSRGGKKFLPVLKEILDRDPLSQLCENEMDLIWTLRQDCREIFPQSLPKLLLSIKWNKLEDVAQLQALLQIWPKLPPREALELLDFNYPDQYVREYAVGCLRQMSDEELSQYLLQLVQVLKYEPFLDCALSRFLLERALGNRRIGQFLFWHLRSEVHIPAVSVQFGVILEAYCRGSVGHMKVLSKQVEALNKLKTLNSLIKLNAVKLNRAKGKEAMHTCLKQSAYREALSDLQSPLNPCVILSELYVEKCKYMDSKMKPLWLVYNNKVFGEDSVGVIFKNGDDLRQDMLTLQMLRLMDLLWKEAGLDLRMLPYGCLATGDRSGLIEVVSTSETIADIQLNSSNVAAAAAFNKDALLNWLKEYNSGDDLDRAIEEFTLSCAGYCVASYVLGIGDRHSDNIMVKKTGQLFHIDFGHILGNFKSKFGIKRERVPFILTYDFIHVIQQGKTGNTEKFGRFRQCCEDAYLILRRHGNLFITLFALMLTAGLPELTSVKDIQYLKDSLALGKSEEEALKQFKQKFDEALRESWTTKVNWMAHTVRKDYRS
Sequence of PI3K β (P27986 whole entry partner): as the sequence (P27986 whole entry partner) above
Sequence of PI3K δ (O00329 whole entry): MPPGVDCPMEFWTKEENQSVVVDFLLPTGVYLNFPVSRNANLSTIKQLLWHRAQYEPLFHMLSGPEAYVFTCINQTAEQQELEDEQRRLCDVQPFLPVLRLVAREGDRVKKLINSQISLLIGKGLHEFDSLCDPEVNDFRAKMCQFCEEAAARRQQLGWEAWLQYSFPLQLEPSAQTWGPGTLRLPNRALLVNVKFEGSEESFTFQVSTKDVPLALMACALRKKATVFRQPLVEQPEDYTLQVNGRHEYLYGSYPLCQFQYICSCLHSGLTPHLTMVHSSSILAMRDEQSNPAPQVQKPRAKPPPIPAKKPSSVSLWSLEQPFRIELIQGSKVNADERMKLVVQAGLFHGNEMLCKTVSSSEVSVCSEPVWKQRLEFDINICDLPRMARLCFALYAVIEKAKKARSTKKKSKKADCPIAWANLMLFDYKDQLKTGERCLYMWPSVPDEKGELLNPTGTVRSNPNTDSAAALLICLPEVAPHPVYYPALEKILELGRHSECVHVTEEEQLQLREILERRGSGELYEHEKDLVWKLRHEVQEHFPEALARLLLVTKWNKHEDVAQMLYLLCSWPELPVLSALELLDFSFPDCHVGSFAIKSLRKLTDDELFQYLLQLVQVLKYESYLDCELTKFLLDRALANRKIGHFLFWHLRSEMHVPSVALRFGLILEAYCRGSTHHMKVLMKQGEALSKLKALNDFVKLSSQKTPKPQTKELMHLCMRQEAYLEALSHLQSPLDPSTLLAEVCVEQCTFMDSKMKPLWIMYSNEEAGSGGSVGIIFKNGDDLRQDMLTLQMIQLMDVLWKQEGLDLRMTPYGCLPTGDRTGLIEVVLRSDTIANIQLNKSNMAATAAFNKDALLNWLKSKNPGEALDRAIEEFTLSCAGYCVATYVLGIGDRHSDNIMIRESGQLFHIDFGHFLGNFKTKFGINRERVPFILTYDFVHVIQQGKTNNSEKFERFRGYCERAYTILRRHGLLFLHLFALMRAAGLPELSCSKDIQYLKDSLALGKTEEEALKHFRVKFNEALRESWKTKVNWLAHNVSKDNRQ
Sequence of PI3K δ (P27986 whole entry partner): as the sequence (P27986 whole entry partner) above

Compound | IC50 (PI3K α) | IC50 (PI3K β) | IC50 (PI3K δ) | IC50 (PI3K γ) | PI3K δ/PI3K γ IC50 (selectivity) (PI3K γ) | IC50 (PI3K-δ in RAJI cells) | RAJIδ/Raw264.7 γ IC50 (selectivity) [1] | IC50 [1]
C[C@H](NC(=O)c1c(N)nn2cccnc12)c1cc2cccc(C#CC(F)(F)F)c2c(=O)n1-c1ccccc1 [Compound 58] | 5 to 10 µM | 5 to 10 µM | 5 to 10 µM | 1 to 5 µM | W (W = >1 to <10) | 0.5 to 1 µM | V (V = 0.1 to 1) | 0.1 to 10 µM
C[C@H](NC(=O)c1c(N)nn2cccnc12)c1cc2cccc(C#Cc3ccccn3)c2c(=O)n1-c1ccccc1 [Compound 32] | 5 to 10 µM | 5 to 10 µM | 5 to 10 µM | 0.1 to 0.5 µM | Y (Y = 50 to <850) | 0.5 to 1 µM | Y (Y = 50 to <850) | 0.001 to 0.05 µM
C[C@H](NC(=O)c1c(N)nn2cccnc12)c1cc2cccc(C#CC(C)(C)C)c2c(=O)n1-c1ccccc1 [Compound 3] | 5 to 10 µM | 5 to 10 µM | 5 to 10 µM | 1 to 5 µM | W (W = >1 to <10) | 1 to 10 µM | X (X = 10 to <50) | 0.05 to 0.1 µM
C[C@H](NC(=O)c1c(N)nn2cccnc12)c1cc2cccc(C#Cc3cn[nH]c3)c2c(=O)n1-c1ccccc1 [Compound 80] | 1 to 5 µM | 1 to 5 µM | 5 to 10 µM | 0.001 to 0.1 µM | Y (key: V = 0.1 to 1; W = >1 to <10; X = 10 to <50; Y = 50 to <850) | 0.1 to 0.5 µM | Y (key: V = 0.1 to 1; W = >1 to <10; X = 10 to <50; Y = 50 to <850) | 0.001 to 0.05 µM
C[C@H](NC(=O)c1c(N)nn2cccnc12)c1cc2cccc(C#CCN3CCN(C)CC3)c2c(=O)n1-c1ccccc1 [Compound 56] | 5 to 10 µM | 5 to 10 µM | 5 to 10 µM | 0.1 to 0.5 µM | X (X = 10 to <50) | 0.1 to 0.5 µM | V (V = 0.1 to 1) | 0.1 to 10 µM
C[C@H](NC(=O)c1c(N)nn2cccnc12)c1cc2cccc(C#Cc3ccncc3)c2c(=O)n1-c1ccccc1 [Compound 26] | 5 to 10 µM | 5 to 10 µM | 5 to 10 µM | 0.1 to 0.5 µM | X (X = 10 to <50) | 0.1 to 0.5 µM | Y (Y = 50 to <850) | 0.001 to 0.05 µM
Cc1ncsc1C#Cc1cccc2cc([C@H](C)NC(=O)c3c(N)nn4cccnc34)n(-c3ccccc3)c(=O)c12 [Compound 75] | 5 to 10 µM | 5 to 10 µM | 5 to 10 µM | 1 to 5 µM | W (W = >1 to <10) | 1 to 10 µM | Y (Y = 50 to <850) | 0.001 to 0.05 µM
C[C@H](NC(=O)c1c(N)nn2cccnc12)c1cc2cccc(C#CC3CCCCC3)c2c(=O)n1-c1ccccc1 [Compound 65] | 5 to 10 µM | 5 to 10 µM | 5 to 10 µM | 1 to 5 µM | W (W = >1 to <10) | 1 to 10 µM | X (X = 10 to <50) | 0.1 to 10 µM
COC(C)C#Cc1cccc2cc([C@H](C)NC(=O)c3c(N)nn4cccnc34)n(-c3ccccc3)c(=O)c12 (some centres unmarked) [Compound 22] | 5 to 10 µM | 5 to 10 µM | 5 to 10 µM | 0.1 to 0.5 µM | X (X = 10 to <50) | 1 to 10 µM | X (X = 10 to <50) | 0.001 to 0.05 µM
CC(=O)N1CCC(C#Cc2cccc3cc([C@H](C)NC(=O)c4c(N)nn5cccnc45)n(-c4ccccc4)c(=O)c23)CC1 [Compound 82] | 5 to 10 µM | 5 to 10 µM | 5 to 10 µM | 0.1 to 0.5 µM | X (key: V = 0.1 to 1; W = >1 to <10; X = 10 to <50; Y = 50 to <850) | 0.5 to 1 µM | X (key: V = 0.1 to 1; W = >1 to <10; X = 10 to <50; Y = 50 to <850) | 0.001 to 0.05 µM
C#Cc1cccc2nc([C@H](C)NC(=O)c3nccnc3N)n(-c3ccc(F)cc3)c(=O)c12 [Compound 49] | 5 to 10 µM | 1 to 5 µM | 1 to 5 µM | 0.001 to 0.1 µM | X (X = 10 to <50) | 0.001 to 0.1 µM | V (V = 0.1 to 1) | 0.001 to 0.05 µM

More lines, now with the values ahead:

IC50 (PI3K α) | IC50 (PI3K β) | IC50 (PI3K δ) | IC50 (PI3K γ) | PI3K δ/PI3K γ IC50 (selectivity) (PI3K γ) | IC50 (PI3K-δ in RAJI cells) | RAJIδ/Raw264.7 γ IC50 (selectivity) [1] | IC50 [1] | Compound
5 to 10 µM | 5 to 10 µM | 5 to 10 µM | 0.1 to 0.5 µM | Y (Y = 50 to <850) | 0.5 to 1 µM | Y (Y = 50 to <850) | 0.001 to 0.05 µM | Cc1c(C#Cc2cccc3cc([C@H](C)NC(=O)c4c(N)nn5cccnc45)n(-c4ccccc4)c(=O)c23)cnn1C [Compound 35]
5 to 10 µM | 1 to 5 µM | 1 to 5 µM | 0.001 to 0.1 µM | X (X = 10 to <50) | 0.1 to 0.5 µM | X (X = 10 to <50) | 0.001 to 0.05 µM | COCC#Cc1cccc2cc([C@H](C)NC(=O)c3c(N)nn4cccnc34)n(-c3ccccc3)c(=O)c12 [Compound 12]
5 to 10 µM | 5 to 10 µM | 5 to 10 µM | 0.1 to 0.5 µM | X (X = 10 to <50) | 1 to 10 µM | X (X = 10 to <50) | 0.05 to 0.1 µM | C[C@H](NC(=O)c1cnn2cccnc12)c1cc2cccc(C#Cc3cnn(C)c3)c2c(=O)n1-c1ccccc1 [Compound 39]
5 to 10 µM | 5 to 10 µM | 5 to 10 µM | 0.1 to 0.5 µM | X (X = 10 to <50) | 0.1 to 0.5 µM | X (X = 10 to <50) | 0.001 to 0.05 µM | C[C@H](NC(=O)c1c(N)nn2cccnc12)c1cc2cccc(C#Cc3nccs3)c2c(=O)n1-c1ccccc1 [Compound 59]
5 to 10 µM | 5 to 10 µM | 5 to 10 µM | 0.1 to 0.5 µM | Y (Y = 50 to <850) | 0.1 to 0.5 µM | X (X = 10 to <50) | 0.001 to 0.05 µM | C[C@H](NC(=O)c1c(N)nn2cccnc12)c1cc2cccc(C#Cc3cnc[nH]3)c2c(=O)n1-c1ccccc1 [Compound 43]
1 to 5 µM | 1 to 5 µM | 1 to 5 µM | 0.001 to 0.1 µM | Y (Y = 50 to <850) | 0.1 to 0.5 µM | W (W = >1 to <10) | 0.001 to 0.05 µM | C[C@H](NC(=O)c1c(N)nn2cccnc12)c1cc2cccc(C#Cc3cscn3)c2c(=O)n1-c1ccccc1 [Compound 54]
5 to 10 µM | 5 to 10 µM | 5 to 10 µM | 0.1 to 0.5 µM | Y (Y = 50 to <850) | 0.1 to 0.5 µM | Y (Y = 50 to <850) | 0.001 to 0.05 µM | C[C@H](NC(=O)c1c(N)nn2cccnc12)c1cc2cccc(C#Cc3cccnc3)c2c(=O)n1-c1ccccc1 [Compound 17]
5 to 10 µM | 5 to 10 µM | 5 to 10 µM | 0.1 to 0.5 µM | X (X = 10 to <50) | 1 to 10 µM | X (X = 10 to <50) | 0.05 to 0.1 µM | C[C@H](NC(=O)c1c(N)nn2cccnc12)c1cc2cccc(C#CC(C)(C)O)c2c(=O)n1-c1ccccc1 [Compound 11]
5 to 10 µM | 5 to 10 µM | 5 to 10 µM | 0.001 to 0.1 µM | Y (Y = 50 to <850) | 0.5 to 1 µM | Y (Y = 50 to <850) | 0.001 to 0.05 µM | Cc1ccc(C#Cc2cccc3cc([C@H](C)NC(=O)c4c(N)nn5cccnc45)n(-c4ccccc4)c(=O)c23)cn1 [Compound 77]
5 to 10 µM | 1 to 5 µM | 1 to 5 µM | 0.001 to 0.1 µM | X (X = 10 to <50) | 0.1 to 0.5 µM | X (X = 10 to <50) | 0.001 to 0.05 µM | C[C@H](NC(=O)c1c(N)nn2cccnc12)c1cc2cccc(C#Cc3cocn3)c2c(=O)n1-c1ccccc1 [Compound 66]
5 to 10 µM | 5 to 10 µM | 5 to 10 µM | 0.1 to 0.5 µM | X (X = 10 to <50) | 0.5 to 1 µM | Y (Y = 50 to <850) | 0.001 to 0.05 µM | C[C@H](NC(=O)c1c(N)nn2cccnc12)c1cc2cccc(C#Cc3ccnn3C)c2c(=O)n1-c1ccccc1 [Compound 73]
5 to 10 µM | 5 to 10 µM | 0.001 to 0.5 µM | 1 to 5 µM | V (V = 0.1 to 1) | 0.001 to 0.1 µM | W (W = >1 to <10) | 0.001 to 0.05 µM | C[C@H](NC(=O)c1c(N)nn2cccnc12)c1cc2cccc(C#Cc3ccccc3)c2c(=O)n1-c1ccccc1 [Compound 5]
5 to 10 µM | 5 to 10 µM | 5 to 10 µM | 1 to 5 µM | W (W = >1 to <10) | 1 to 10 µM | W (W = >1 to <10) | 0.1 to 10 µM | Cc1cnc(C(=O)N[C@@H](C)c2cc3cccc(C#Cc4cnn(C)c4)c3c(=O)n2-c2ccccc2)c(N)n1 [Compound 68]
5 to 10 µM | 1 to 5 µM | 1 to 5 µM | 0.1 to 0.5 µM | X (X = 10 to <50) | 0.001 to 0.1 µM | W (W = >1 to <10) | 0.001 to 0.05 µM | C[C@H](NC(=O)c1nccnc1N)c1cc2cccc(C#Cc3cnn(C)c3)c2c(=O)n1-c1ccccc1 [Compound 29]
